Structures can show the parent of a compound that is named as a salt.
test system: Maillard reaction; assay: Inhibitory effect on Maillard reaction in vitro (BSA + glucose incubation, fluorescence); assay type: biochemical; details: 6mM test compound, 100 mg/ml bovine serum albumin (BSA), 200 mM glucose, 0.5 M phosphatic buffer pH 7.38, a week at 37°C; fluorescence excitation 360nm, emission 450 nm
Procedure: In order to evaluate the inhibitory effect on Maillard reaction in vitro, of the compounds in the present invention, the measurement was carried out under conditions described below.
After incubation, the incubated medium was diluted 100 times with the same phosphatic buffer solution, and the fluorescence spectrum was measured at the excitation maximum of 360nm and the emission maximum of 450 nm.
Inhibition percentage of the test compounds was calculated by the following equation: [formula] ΔI₁ : fluorescence of test compounds ΔI₂ : fluorescence of (test compounds + glucose), ΔI₃ : fluorescence of (test compounds + BSA), ΔI₄ : fluorescence of (test compounds + BSA + glucose), ΔI : fluorescence of (BSA + glucose)

Compared with `NNC(=O)NC1CCCCC1` [1(a), 4-cyclohexyl semicarbozide], `NNC(=O)C1CCCC1` [2(i), cyclopentancarbonylhydrozine] is lower in “Inhibitory effect (%) (6mM)” value: 100% for the first, 37% for the second.

Going from `Cl.NNC(=O)Nc1ccc(Cl)cc1` [1(e), 4-(4-chlorophenyl) semicarbazide hydrochloride] to `NNC(=O)Nc1cccc2ccccc12` [1(j), 4-(1-naphthyl) semicorbazide hydrochloride], the “Inhibitory effect (%) (6mM)” value rises from 65% to 100%.

Compared with `Cl.NNC(=O)NCc1ccccc1` [1(f), 4-benzylsemicarbazide hydrochloride], `NNC(=O)CCc1ccccc1` [2(f), 3-phenylpropionohydrazide] is higher in “Inhibitory effect (%) (6mM)” value: 90% for the first, 100% for the second.

Going from `Cl.Cl.NNC(=O)NCCCCCCNC(=O)NN` [1(i), 4-[6-(3-aminoureido)hexyl]semicarbazide dihydrochloride] to `CC(=O)NN` [acetohydrazide], the “Inhibitory effect (%) (6mM)” value falls from 100% to 35%.

Compared with `CN(N)C(=O)Nc1ccccc1.Cl` [1(q), 2-methyl-4-phenylsemicarbazide hydrochloride], `NNC(=O)c1ccccc1N` [Example 2(a), 2-aminobenzohydrazide] is higher in “Inhibitory effect (%) (6mM)” value: 74% for the first, 100% for the second.

In the case of `NC(N)=O` [Urea, reference compound], the “Inhibitory effect (%) (6mM)” value is reported as 28%.

From patent EP0323590A2, “Carbazoyl derivatives” (ONO PHARMACEUTICAL CO., LTD., priority 1987, dated 1989)
